Experimental data as given in patent publication US9782424B2, “Synergistic combination comprising avermectins and a NSAID for tumor inhibition” (Ectin Research AB, priority 2011, dated 2017).
“And” between values parts separate entries of the source, which are not always exact repeats. Identical values can stand only once. “Also recorded” adds a separate entry of the source.

Assays:
[1] = tested on: colorectal cells (Colo205); assay: Morphology of cultured tumor cells, Colo205; format: cell-based, human
Experimental: (§1) Commercially available human tumor cell lines were purchased from ATCC (ATCC/LGC-standards, Borás, Sweden). […] Briefly, ampoules of frozen cells were thawed by submerging into a 37° C. water bath for 45 s. […] With supernatant discarded, cell pellets were further resuspended with 5 ml complete medium into 25 cm^2 cell culture flasks (Cell+, Sarstedt, Nümbrecht, Germany). Tumor cells were cultured until sub-confluence and further sub-cultured with Trypsin (0.5%), EDTA (0.2%) solution (T4174, TE-10x, Sigma) in sterile sodium chloride. Culture media was changed two-three times a week. Culture flasks (Cell+, Sarstedt, Nümbrecht, Germany) and culture plates (Falcon/BD, Franklin Lakes, N.J., USA) were used for experimental set-ups. Cells were regularly monitored using an inverted microscope connected to a digital photo equipment (Axiovert 25 and Axiovision, Zeiss, Carl Zeiss AG, Germany) (FIG. 1). Described culture techniques and equipment have been used extensively in the laboratory
(§2) The effect of Ivermectin, selamectin, abamectin alone, or in combination with ketoconazole, albendazole, ibuprofen, diclofenac and celecoxib on the morphology of cultured human tumor cells was studied. The effect of ivermectin in the presence of increasing concentration of ivermectin was also investigated. Cells were grown into sub-confluence and then sub-cultured into 12 and 24 well plates (Sarstedt, Falcon/BD) for morphology studies, or in 96 well plates (Sarstedt, Falcon/BD) for proliferation studies.

[2] = tested on: urinary bladder cell line (UM-UC-3); assay: XTT-assay proliferation rate, urinary bladder cell line; format: cell-based, human; details: for Proliferation rate compared to untreated medium control: UM-UC-3 (Table 3); for Proliferation rate in per cent compared to untreated medium control: UM-UC-3
Experimental: as §1
The proliferation rates of the different human tumor cell lines were studied using a method based on the conversion of a sodium salt (XTT-assay, Sigma) into a stable orange color that could be analyzed in a spectrophotometer. […] The color change was measured using a 96-well plate reader with software to calculate the absorbance at 450 nm (V-max/Softmax Pro, Molecular Devices, USA).
Increasing concentrations of substance ivermectin was added with an 8-channel pipette (Titertek, Kem-En-Tec, Taastrup, Denmark) together with sterile pipette tips (Molecular Bioproducts, San Diego, Calif., USA). Cell cultures including active substances were incubated for 24 hours (and 96 hours). Untreated wells including culture medium only served as untreated controls. The XTT-assay substrate was added and after gentle agitation using a micro plate shaker, absorbencies at 450 and 650 nm were measured. Levels from medium were subtracted and compared with control wells, using culture medium only.

[3] = tested on: advanced urothelial cancer with extensive metastasis; assay: Case observation of a patient given ivermectin; format: in vivo, human; details: middle age person, standard treatment dosage for Strongyloidiasis, no other medication
Description: The present studies are based on an observation describing a middle age person suffering from an advanced urothelial cancer with extensive metastasis. Due to a tropical infection (Strongyloidiasis) this patient received the substance ivermectin as a standard treatment dosage.
The present studies are based on a case report describing a middle age person suffering from an advanced urothelial cancer with extensive metastasis. Due to a tropical infection this patient received the substance ivermectin. […] The reason for this is not known however a direct effect of the substance ivermectin could not be precluded.

[4] = tested on: prostate cells (LNCaP); assay: Morphology of cultured tumor cells, LNCaP; format: cell-based, human; details: for Effect on morphology: 24 hours (FIG. 8)
Experimental: as §1, §2

[5] = tested on: colorectal cell line HT29; assay: Morphology of cultured tumor cells, HT29; format: cell-based, human
Experimental: as §1
The effect of Ivermectin, selamectin, abamectin alone, or in combination with ketoconazole, albendazole, ibuprofen, diclofenac and celecoxib on the morphology of cultured human tumor cells was studied. The effect of ivermectin in the presence of increasing concentration of ivermectin was also investigated. […]

[6] = tested on: human urinary bladder cancer cells; assay: Tryphan blue exclusion viability; format: cell-based; details: compared to untreated medium control (FIG. 3)
Experimental: as §2, with “studies. Viability of urinary bladder cells was studied using the tryphan blue exclusion method (Freshney R. Culture of animal cells: A manual of basic techniques. New York: Alan R Liss Inc; 1987).” for “studies.”

[7] = tested on: colorectal cell line (Colo205); assay: XTT-assay proliferation rate, colorectal cell line Colo205; format: cell-based, human; details: for Proliferation rate compared to medium control: Colo205 (Table 4); for Proliferation rate in per cent compared to untreated medium control: Colo205
Description: Commercially available human tumor cell lines were purchased from […], Borás, Sweden). Cell lines from urinary bladder (UM-UC-3, #CRL-1749), colorectal carcinoma (Colo205, #CCL-222 and HT29, #HTB-38), prostate carcinoma (LNCaP, #CRL-1740) and breast carcinoma (ZR-75-1, #CRL-1500) were purchased and stored in liquid nitrogen. […] Tumor cell lines were handled aseptically using a laminar airflow (LAF) bench (Holten 2448, Ninolab, Sweden) and stored in a liquid nitrogen tank and were initiated in culture as previously described (Falk P. Experimental models of the peritoneal environment: Effects of TGF-beta and Hyaluronan. Göteborg: University of Gothenburg; 2008). Briefly, ampoules of frozen cells were thawed by submerging into a 37° C. water bath for 45 s. […] Culture media was changed two-three times a week. Culture flasks (Cell+, Sarstedt, Nümbrecht, Germany) and culture plates (Falcon/BD, Franklin Lakes, N.J., USA) were used for experimental set-ups. […] Described culture techniques and equipment have been used extensively in the laboratory The proliferation rates of the different human tumor cell lines were studied using a method based on the conversion of a sodium salt (XTT-assay, Sigma) into a stable orange color that could be analyzed in a spectrophotometer. The color change is proportional to the mitochondrial dehydrogenase activity resulting in an effective technique for measuring cell toxicity (Roehm N W, Rodgers […], Glasebrook A L. An improved colorimetric assay for cell proliferation and viability utilizing the tetrazolium salt XTT. […] The color change was measured using a 96-well plate reader with software to calculate the absorbance at 450 nm (V-max/Softmax Pro, Molecular Devices, USA). […] RPMI 1640 and EMEM without phenol red was used during the experiments to reduce the red color background signal in the XTT-assay. […] Untreated wells including culture medium only served as untreated controls. The XTT-assay substrate was added and after gentle agitation using a micro plate shaker, absorbencies at 450 and 650 nm were measured. Levels from medium were subtracted and compared with control wells, using culture medium only.

[8] = ivermectin 10e-4 to 10e-10 mol/L (FIG. 2)

## 22,23-dihydroavermectin B1a+22,23-dihydroavermectin B1b [ivermectin]
[1]; ivermectin
  Effect on morphology: affected cell structure
[1]; ivermectin 10 μM
  Effect on morphology: no effect
[1]; ivermectin 10 μM alone, albendazole 20 and 40 μM alone (FIG. 11)
  Decreased growth of cells, substances tested alone: not seen
[1]; [8]
  Morphological effects over the concentration series: affected even at 10e-6 mol/L
[2]; IVM 1 μmol/L alone
  Proliferation rate compared to untreated medium control: 99 ± 1%
[2]; IVM 10 μmol/L alone
  Proliferation rate compared to untreated medium control: 105 ± 3%
[2]; IVM 100 μmol/L alone
  Proliferation rate compared to untreated medium control: 90±1%
[2]; IVM 100 μmol/L alone, listed as IVM
  Proliferation rate compared to untreated medium control: 90 ± 1%
[2]; ivermectin 10e-9 mol/L
  Proliferation rate in per cent compared to untreated medium control: 100 ± 3%
[2]; ivermectin 10e-8 mol/L
  Proliferation rate in per cent compared to untreated medium control: 96 ± 5%
[2]; ivermectin 10e-7 mol/L
  Proliferation rate in per cent compared to untreated medium control: 95 ± 9%
[2]; ivermectin 10e-6 mol/L
  Proliferation rate in per cent compared to untreated medium control: 91 ± 3%
[2]; ivermectin 10e-5 mol/L
  Proliferation rate in per cent compared to untreated medium control: 34±8% and 34 ± 6%
[2]; ivermectin 10e-4 mol/L
  Proliferation rate in per cent compared to untreated medium control: 34±3%
[3]
  Clinical outcome of the urothelial cancer: all the clinical signs of the urothelial cancer disappeared; also recorded: treated both the tropical infection and the urothelial cancer
[4]; ivermectin 100 μM
  Effect on morphology: affected
[4]; [8]
  Morphological effects over the concentration series: affected by the highest concentration 10e-4 mol/L only
[4]; ivermectin 1 and 10 μM
  Effect on morphology: No effect
[5]; ivermectin 100 μM
  Effect on morphology: affected
[5]; [8]
  Morphological effects over the concentration series: not morphologically affected even at the highest concentration
[6]
  Tryphan blue exclusion (viability): affected cells in a dose-dependent manner
[7]; IVM 1 μmol/L alone
  Proliferation rate compared to medium control: 101.3 ± 4.9%
[7]; IVM 10 μmol/L alone
  Proliferation rate compared to medium control: 97.7 ± 8.5%
[7]; IVM 100 μmol/L alone
  Proliferation rate compared to medium control: 69.4 ± 11.5%
[7]; ivermectin 10e-9 mol/L
  Proliferation rate in per cent compared to untreated medium control: 97 ± 14%
[7]; ivermectin 10e-8 mol/L
  Proliferation rate in per cent compared to untreated medium control: 104 ± 8%
[7]; ivermectin 10e-7 mol/L
  Proliferation rate in per cent compared to untreated medium control: 69±9%
[7]; ivermectin 10e-6 mol/L
  Proliferation rate in per cent compared to untreated medium control: 42±12%
[7]; ivermectin 10e-5 mol/L
  Proliferation rate in per cent compared to untreated medium control: 6±1%
[7]; ivermectin 10e-4 mol/L
  Proliferation rate in per cent compared to untreated medium control: 4±1%
